Reference: US20250108036A1, “COMPOSITIONS FOR REMOVING SENESCENT CELLS AND USES THEREOF” (LIFECEUTIX CO., LTD., priority 2021, published 2025)

Legend:
[1] = test system: HMGB1; assay: HMGB1 ELISA in culture medium of senescent foreskin cells (Example 10, Table 62); assay type: cell-based, human
Method: After 6 hours, the amounts of HMGB1 and HMGN1 secreted into the cell culture medium were measured using an enzyme-linked immunosorbent assay (ELISA Kit, purchased from AssayGenie).

[2] = test system: HMGN1; assay: HMGN1 ELISA in culture medium of foreskin cells (Examples 10, 11; Tables 62, 63, 64); assay type: cell-based, human; conditions: for HMGN1 / activity at 30 µM: 30 μM test compound, doxorubicin-treated foreskin cells, DMSO = 100; for activity at 30 µM: Homo sapiens, read-out: HMGN1
[3] = test system: foreskin cells in which aging was induced by doxorubicin; assay: cell viability of senescent foreskin cells with caspase inhibitor QVD-Oph (Example 10, Table 61); assay type: cell-based, human; conditions: ABT-263 1 μM; for Survial (%): doxorubicin-senescent foreskin cells, 3 days
[4] = test system: HMGN1; assay: HMGN1 ELISA in culture medium of A549 cancer cells (Example 12, Table 66); assay type: cell-based, human; conditions: test compound 30 μM, ELISA, DMSO = 100; for HMGN1 (amount of HMGN1 secreted in the cell culture): doxorubicin-induced senescent A549 cells; for activity at 30 µM: Homo sapiens, A549, doxorubicin-induced senescent A549 cells, read-out: HMGN1 (amount of HMGN1 secreted in the cell culture)
[5] = open field test in obese mice given senescent cells killed by test compounds (Example 16, Table 72); assay type: in vivo, C57BL6J mice; conditions: obese mice administered senescent cells whose death was induced by the test compound
Description: (§1) To obtain preadipocytes, groin fat tissue was collected from an 8-week-old female C57BL6J mouse (purchased from KRIBB Laboratory Animal Resource Center). The fat tissue was cut into small pieces and treated with collagenase to decompose the fat tissue, then centrifuged to collect the stromal vascular fraction (SVF) containing preadipocytes. It was washed with a washing medium (HBSS, purchased from GenDEPOT; 3.5% Albumin Fraction V, purchased from GenDEPOT; 100 U/ml Penicillin & Streptomycin, purchased from Invitrogen), mixed again, and extracted by filtering through a 100 μm nylon mesh. The isolated preadipocytes were cultured in the designated medium (DMEM, purchased from GenDEPOT; 20% FBS, purchased from GenDEPOT; 100 U/ml Penicillin & Streptomycin, purchased from Invitrogen). In the same manner as Example 1, cells were treated with doxorubicin at a concentration of 250 nM for 24 hours and cultured for an additional 21 days to induce cell senescence. Cells were treated with doxorubicin at a concentration of 250 nM for 24 hours and cultured for an additional 21 days to induce cell senescence. By treating the test compounds in the same manner as in Example 13, it was confirmed using an optical microscope that the death of most senescent cells was induced. The killed preadipocytes were washed using PBS (purchased from Welgene) and then mixed with PBS at a concentration of 5×10^5 cells/200 μl. It was administered subcutaneously to 8-week-old female C57BL6J mice (purchased from KRIBB Laboratory Animal Resource Center). At 7 and 10 days after administration of the killed senescent cells, 2 million senescent preadipocytes were mixed in 200 μl of PBS and administered into the abdominal cavity of mice. After administration of killed senescent cells, obesity was induced in mice with a high-fat diet (DIO) for 8 weeks in the same manner as in Example 9-1. Afterwards, the mouse was sacrificed in the same manner as in Example 7-2, total RNA was extracted from the groin fat tissue, and qRT-PCR was performed and analyzed using the synthesized cDNA. […] The mRNA amount of p16, MMP3, and IL6 without administration of senescent cells whose death was induced by the test compounds was calculated as 100%, and the amount of p16, MMP3, and IL6 after administration of the senescent cells whose death was induced by the test compounds was compared with them. Furthermore, an open field test was performed to analyze aging-related frailty in mice using the same method as Example 7-7. […] The amount of activity evaluation without administration of senescent cells whose death was induced by the test compounds was calculated as 100% and compared it with the amount of activity evaluation after administration of senescent cells whose death was induced by the test compounds.

[6] = test system: p16, MMP3, IL6; assay: p16, MMP3, IL6 mRNA qRT-PCR in groin fat of obese mice given senescent cells killed by test compounds (Example 16, Table 72); assay type: in vivo, C57BL6J mice; conditions: obese mice administered senescent cells whose death was induced by the test compound
Description: as §1, with “compounds. […]” for “compounds.”

[7] = test system: p16, MMP3, IL6; assay: p16, MMP3, IL6 mRNA qRT-PCR in liver of naturally aged mice treated with test compounds (Example 15, Table 71); assay type: in vivo, C57BL6J mice; conditions: liver tissue of naturally aged mice treated with test compound
[8] = test system: foreskin cells in which senescence was induced by doxorubicin; assay: CellTiter-Glo cell viability of doxorubicin-induced senescent foreskin cells (Examples 1-2, 10, 11, 13; Tables 4, 63, 65); assay type: cell-based, human
Method: (§2) After 3 days, cell viability was measured using CellTiter-Glo Luminescent Cell Viability Assay (Promega) or light microscopy.

[9] = test system: senescent foreskin cells; assay: survival of senescent foreskin cells treated with medium supernatant (secreted fluid) of compound-killed cells (Example 13, Tables 68, 69); assay type: cell-based, human; conditions: for Survival: culture medium supernatant from dying senescent cells treated with compound at 30 μM, 90 μM or 270 μM, senescent foreskin cells; for Survival (%): supernatant-treated cells: senescent cells, after 3 days
[10] = test system: A549; assay: CellTiter-Glo cell viability of senescent A549 cancer cells (Example 12, Table 67); assay type: cell-based, human; conditions: CellTiter-Glo; for Survival (%): doxorubicin-induced senescent A549 cancer cells; for viability at 1.1 µM: Homo sapiens, A549, doxorubicin-induced senescent A549 cancer cells, read-out: Survival (%)
[11] = open field test in naturally aged mice treated with test compounds (Example 15, Table 71); assay type: in vivo, C57BL6J mice; conditions: naturally aged mice treated with test compound
[12] = test system: foreskin cells in which senescence was not induced; assay: CellTiter-Glo growth of foreskin cells in which senescence was not induced (Tables 5, 12); conditions: 30 μM, 3 days
Method: as §2

[13] = test system: normally proliferating foreskin cells; assay: survival of normally proliferating foreskin cells treated with medium supernatant (secreted fluid) of compound-killed cells (Example 13, Table 68); assay type: cell-based, human; conditions: after 3 days
Method: After treating cells with the test compound at a high concentration that induces the death of most cells in both non-senescence-induced and senescence-induced cells, the cells were washed three times with PBS to remove the test compound, and replaced with fresh medium and cultured for an additional 3 hours at the time when the compound has entered into the cell but has not yet induced cell death (approximately 1 to 3 hours after compound treatment). During this additional culture, by checking with an optical microscope, etc., the medium supernatants containing secreted fluid from normally proliferating and senescent cells in which cell death was induced were obtained. The obtained medium supernatant was replaced with the medium of normally proliferating and senescent cells, respectively, and cell survival rate was measured after 3 days.

[14] = read-out: MST Kd; cited from earlier work
[15] = 1 μM, culture medium after 6 hours, senescent foreskin cells
[16] = ABT-263 1 μM or LX-112 10 μM, 6 hours
[17] = 1.1 μM test compound, doxorubicin-induced senescent foreskin cells, CellTiter-Glo, 0 μM = 100
[18] = […] test compound, doxorubicin-induced senescent foreskin cells, CellTiter-Glo, 0 μM = 100
[19] = Homo sapiens, 72 h, 1.1 μM test compound, doxorubicin-induced senescent foreskin cells, CellTiter-Glo, 0 μM = 100, read-out: Survival (%)
[20] = supernatant from compound-treated medium without cells (No Cells)
[21] = supernatant from death-induced proliferating foreskin cells (compound 30 μM)
[22] = supernatant from death-induced senescent foreskin cells (compound 30 μM)

CC1(C)CCC(c2ccc(Cl)cc2)=C(CN2CCN(c3ccc(C(=O)NS(=O)(=O)c4ccc(N[C@H](CCN5CCOCC5)CSc5ccccc5)c(S(=O)(=O)C(F)(F)F)c4)cc3)CC2)C1 [ABT-263, reference compound]
HMGB1 (pg/ml) [1, 15]: 462.7 (±21.6) pg/ml
HMGB1 secreted in the culture medium from dying senescent cells [1, 16]: little change
HMGN1 (pg/ml) [2, 15]: 105.3 (±13.5) pg/ml
HMGN1 secreted in the culture medium from dying senescent cells [2, 16]: no significant change
Survial (%) ([3]; QVD-Oph 20 μM applied 4 hours before): 98.4 (±2.6) %
Survial (%) ([3]; without QVD-Oph): 23.8 (±5.5) %
inhibition of the death of senescent cells by the caspase inhibitor ([3]; QVD-Oph 20 μM, LX-112 10 μM): completely inhibited

CC(=O)OC[C@H]1O[C@@H]([S-])[C@H](OC(C)=O)[C@@H](OC(C)=O)[C@@H]1OC(C)=O.CCP(CC)CC.[Au+] [LX-201, Auranofin, reference compound]
HMGN1 (amount of HMGN1 secreted in the cell culture) [4]: 337
Open Field Test Time in Center (%) [5]: 176 (±22.6) %
IL6 mRNA (%) [6]: 76.8 (±6.4) %
MMP3 mRNA (%) [6]: 67.1 (±9.2) %
p16 mRNA (%) [6]: 79.5 (±7.6) %
IL6 mRNA (%) [7]: 65.7 (±5.1) %
MMP3 mRNA (%) [7]: 77 (±9.6) %
p16 mRNA (%) [7]: 85 (±8.2) %
Survival (%) [8, 17]: 98.2%
Survival (%) [8, 18]: 3%
HMGN1 [2]: 291
Survival [9]: 62.9
Survival (%) ([10]; 1.1 μM test compound): 72.5%
Open Field Test Time in Center (%) [11]: 226.4 (±27.6) %

COc1ccc(N(C(=O)CCl)C(C(=O)NCCc2ccccc2)c2cccs2)cc1Cl (centres unmarked) [LX-402]
activity at 30 µM [4]: 340%
cell death, normally proliferating cells [12]: induced the death of most cells
cell death, senescent cells ([8]; 30 μM, 3 days): induced the death of most cells
viability at 1.1 µM [8, 19]: 67.2%
viability at 10 µM ([8]; Homo sapiens, 72 h, 10 μM test compound, doxorubicin-induced senescent foreskin cells, CellTiter-Glo, 0 μM = 100, read-out: Survival (%)): 4.5%
viability at […] ([8]; Homo sapiens, 72 h, […] test compound, doxorubicin-induced senescent foreskin cells, CellTiter-Glo, 0 μM = 100, read-out: Survival (%)): 27%
activity at 30 µM [2]: 298%
Survival (%) [9, 20]: 98 (±3.6) %
Survival (%) [9, 21]: 31 (±1.2) %
Survival (%) [9, 22]: 48.3 (±2.1) %
viability at 1.1 µM ([10]; 1.1 μM test compound): 71.6%
Survival (%) [13, 20]: 97.1 (±5.9) %
Survival (%) [13, 21]: 78.1 (±3.8) %
Survival (%) [13, 22]: 101.1 (±2.2) %

CC(C)(C)OC(=O)CCCN1C(=O)c2ccccc2C1=O [LX-407]
activity at 30 µM [4]: 339%
viability at 1.1 µM [8, 19]: 15.9%
activity at 30 µM [2]: 299%
Kd [14]: 399 nM
viability at 1.1 µM ([10]; 1.1 μM test compound): 29.4%

S=C(N/N=C1\CCCc2cccnc21)N1CCN(c2ccccn2)CC1 [LX-801]
HMGN1 (amount of HMGN1 secreted in the cell culture) [4]: 329
Open Field Test Time in Center (%) [5]: 216.8 (±12.8) %
IL6 mRNA (%) [6]: 79.4 (±4.6) %
MMP3 mRNA (%) [6]: 81.7 (±2.9) %
p16 mRNA (%) [6]: 79.8 (±3.4) %
IL6 mRNA (%) [7]: 71.1 (±1.8) %
MMP3 mRNA (%) [7]: 76.5 (±4.2) %
p16 mRNA (%) [7]: 69.4 (±6.9) %
Survival (%) [8, 17]: 50.5%
Survival (%) ([8]; 10 μM test compound, doxorubicin-induced senescent foreskin cells, CellTiter-Glo, 0 μM = 100): 28.2%
Survival (%) [8, 18]: 48.9%
HMGN1 [2]: 265
Survival [9]: 52.7
Survival (%) ([10]; 1.1 μM test compound): 78.1%
Survival (%) ([10]; 10 μM test compound): 12.7%
Open Field Test Time in Center (%) [11]: 241.8 (±17.9) %

CC(C)(C)OC(=O)CCN1C(=O)c2ccccc2C1=O [QW-011]
Kd [14]: 926 nM

CC(C)(C)OC(=O)C(C)(C)N1C(=O)c2ccccc2C1=O [QW-020]
Kd [14]: 2140 nM

CC(C(=O)OC(C)(C)C)N1C(=O)c2ccccc2C1=O (centres unmarked) [QW-023]
Kd [14]: 1780 nM

CC(C)(C)OC(=O)CCCCCN1C(=O)c2ccccc2C1=O [QW-029]
Kd [14]: 2100 nM

CC(C)(C)OC(=O)C(N1C(=O)c2ccccc2C1=O)C(C)(C)C (centres unmarked) [QW-034]
Kd [14]: 979 nM

CCC(C)C(C(=O)OC(C)(C)C)N1C(=O)c2ccccc2C1=O (centres unmarked) [QW-050]
Kd [14]: 2430 nM
